Experimental data published in ChEMBL document CHEMBL1208791, “Optimization of alpha-ketoamide based p38 inhibitors through modifications to the region that binds to the allosteric site” (Bioorg Med Chem Lett, 2010).

How the values were obtained:
[1] = target: T1, Mitogen-activated protein kinase 14 (Homo sapiens, UniProt Q16539); assay: Inhibition of p38 alpha activity by ELISA
[2] = target: T1, Mitogen-activated protein kinase 14; assay: Inhibition of phospho-p38 alpha activity by ELISA
[3] = tested on: Blood; assay: Ex vivo inhibition of […]-alpha-production in human whole blood; assay type: functional, tissue-based
[4] = tested on: THP-1; assay: Inhibition of LPS-induced […]-alpha-production in immortalized human THP1 cells; assay type: functional, cell-based
[5] = Oral bioavailability in rat at 30 mg/kg, po; assay type: ADME, organism-based; settings: in vivo
[6] = Cmax in rat at 10 mg/kg, iv or 30 mg/kg, po; assay type: ADME, organism-based; settings: in vivo
[7] = Clearance in rat at 10 mg/kg, iv or 30 mg/kg, po; assay type: ADME, organism-based; settings: in vivo
[8] = AUC in rat at 10 mg/kg, iv or 30 mg/kg, po; assay type: ADME, organism-based; settings: plasma
[9] = Half life in rat at 10 mg/kg, iv or 30 mg/kg, po; assay type: ADME, organism-based; settings: in vivo
[10] = Volume of distribution at steady state in rat at 10 mg/kg, iv or 30 mg/kg, po; assay type: ADME, organism-based; settings: in vivo, read-out: Vdss
[11] = Tmax in rat at 10 mg/kg, iv or 30 mg/kg, po; assay type: ADME, organism-based; settings: in vivo

T1 sequence (Q16539 whole entry): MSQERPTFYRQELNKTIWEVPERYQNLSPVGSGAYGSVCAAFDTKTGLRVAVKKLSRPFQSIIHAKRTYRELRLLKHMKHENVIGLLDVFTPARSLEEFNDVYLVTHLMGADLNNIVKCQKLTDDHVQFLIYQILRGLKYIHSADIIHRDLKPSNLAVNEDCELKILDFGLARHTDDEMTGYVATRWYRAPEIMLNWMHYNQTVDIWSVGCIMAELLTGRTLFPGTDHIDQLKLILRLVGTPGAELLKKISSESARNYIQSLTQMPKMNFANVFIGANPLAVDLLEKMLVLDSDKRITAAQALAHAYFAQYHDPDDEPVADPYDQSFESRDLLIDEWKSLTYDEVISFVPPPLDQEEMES

| Compound | IC50 [1] [µM] | IC50 [2] [µM] | further results |
| --- | --- | --- | --- |
| COc1c(Cl)cc(C(C)(C)C)cc1NC(=O)C(=O)c1ccc(OCCN2CCOCC2)c2ccccc12 | 0.07 | – | – |
| COc1c(NC(=O)C(=O)c2ccc(OCCN3CCOCC3)c3ccccc23)cc(C(C)(C)C)cc1C(=O)NC1CC1 | 0.071 | 0.14 | – |
| COc1c(NC(=O)/C(=N/O)c2ccc(OCCN3CCOCC3)c3ccccc23)cc(C(C)(C)C)cc1NS(C)(=O)=O | 0.2 | – | – |
| COc1c(NC(=O)C(O)c2ccc(OCCN3CCOCC3)c3ccccc23)cc(C(C)(C)C)cc1NS(C)(=O)=O (centres undefined) | 0.39 | – | – |
| COc1c(NC(=O)C(=O)c2ccc(Nc3ccncn3)c3ccccc23)cc(C(C)(C)C)cc1NS(C)(=O)=O | 0.072 | 0.001 | – |
| COc1c(NC(=O)C(=O)c2ccc(Nc3ccncc3)c3ccccc23)cc(C(C)(C)C)cc1NS(C)(=O)=O | 0.025 | 0.002 | – |
| COc1c(C#N)cc(C(C)(C)C)cc1NC(=O)C(=O)c1ccc(Nc2ccncc2)c2ccccc12 | 0.051 | – | IC50 [3]: 0.15 µM |
| CC(C)(C)c1cc(C#N)cc(NC(=O)C(=O)c2ccc(OCCN3CCOCC3)c3ccccc23)c1 | 0.033 | – | – |
| COc1ccc(C(C)(C)C)cc1NC(=O)C(=O)c1ccc(OCCN2CCOCC2)c2ccccc12 | 0.25 | – | – |

The next lines start with results.

| IC50 [1] [µM] | IC50 [2] [µM] | Compound | further results |
| --- | --- | --- | --- |
| 0.19 | 0.09 | COc1c(NC(=O)Cc2ccc(OCCN3CCOCC3)c3ccccc23)cc(C(C)(C)C)cc1NS(C)(=O)=O | – |
| – | 0.021 | CNc1nccc(Nc2ccc(C(=O)C(=O)Nc3cc(C(C)(C)C)cc(NS(C)(=O)=O)c3OC)c3ccccc23)n1 | IC50 [4]: 0.008 µM; IC50 [3]: 0.1 µM |
| 0.038 | 0.013 | COc1c(NC(=O)C(=O)c2ccc(Oc3ccnc(N4CCOCC4)n3)c3ccccc23)cc(C(C)(C)C)cc1NS(C)(=O)=O | – |
| 0.078 | – | COc1c(C#N)cc(C(C)(C)C)cc1NC(=O)C(=O)c1ccc(-c2cccnc2)c2ccccc12 | – |
| 0.06 | – | COc1c(C#N)cc(C(C)(C)C)cc1NC(=O)C(=O)c1ccc(-c2ccncc2)c2ccccc12 | – |
| 0.19 | – | COc1c(C#N)cc(C(C)(C)C)cc1NC(=O)C(=O)c1ccc(-c2ccc(F)nc2)c2ccccc12 | – |
| 0.022 | – | COc1c(C#N)cc(C(C)(C)C)cc1NC(=O)C(=O)c1ccc(-c2ccnc(C)c2)c2ccccc12 | – |
| 0.25 | 0.31 | CC(C)(C)c1cccc(NC(=O)C(=O)c2ccc(OCCN3CCOCC3)c3ccccc23)c1 | – |
| 0.028 | – | N#Cc1cc(NC(=O)C(=O)c2ccc(OCCN3CCOCC3)c3ccccc23)cc(N2CCOCC2)c1 | – |
| 0.042 | – | COc1c(C#N)cc(C(C)(C)C)cc1NC(=O)C(=O)c1ccc(OCCN2CCOCC2)c2ccccc12 | bioavailability [5]: 57%; Cmax [6]: 2400 ng/mL; clearance [7]: 18.3 mL/min/kg; AUC [8]: 15000 ng·h/mL; half-life [9]: 9.8 h; Vd [10]: 4.9 L/kg; Tmax [11]: 0.5 h |
| 0.059 | 0.038 | COc1c(NC(=O)C(=O)c2ccc(OCCN3CCOCC3)c3ccccc23)cc(C(C)(C)C)cc1NS(C)(=O)=O [ITX-5061 FREE BASE] | bioavailability [5]: 77%; Cmax [6]: 1300 ng/mL; clearance [7]: 26.7 mL/min/kg; AUC [8]: 14000 ng·h/mL; half-life [9]: 3.5 h; Vd [10]: 5.2 L/kg; Tmax [11]: 3 h |
